Experimental data: patent US20260184675A1, “CHIRAL ISOMERIC SULFITE COMPOUND AND APPLICATION THEREOF” (Chengdu Hanova BioSciences Co., Ltd, priority 2024, published 2026)

Legend:
[1] = test system: pest eggs of Tetranychus cinnabarinus; assay: Effect on hatching of pest eggs of Tetranychus cinnabarinus, leaf disc method; assay type: in vivo; details: for Hatching rate (%): 7 days after insecticide delivery; for inhibitory effect on the hatching of pest eggs of Tetranychus cinnabarinus (in words): 1 ppm
Method: • (1) Preparation of leaf discs containing eggs: 20 female adult mites of Tetranychus cinnabarinus were transferred onto leaf discs of Vicia faba with a diameter of 2.0 cm (with wetted filter paper at the bottom), then covered it with a lidded culture dish and cultivated under moisturizing conditions, the adult mites were removed within 36 hours and microscopic examination and counting were performed on leaf discs containing eggs. • (2) Investigation of egg population base: Before pesticide soaking, a microscopic examination was conducted on the egg basic number of each leaf disc, with 2 replicates set for each treatment. • (3) Pesticide soaking treatment: The leaf butterflies loaded with mite eggs were soaked in clear water and sulfite compounds for 10 seconds, respectively, then taken out and cultivated under moisturizing conditions. Each treatment should be repeated for no less than 3 times. • (4) Cultivation and observation: The […] were cultivated under normal conditions. Five days after insecticide delivery, the hatching status of mite eggs was investigated. • Note: The temperature and humidity conditions of the constant temperature and humidity incubator after the treatment should be controlled so as to avoid excessive temperature differences, which may cause generation and dripping of condensate water in the culture dish, resulting in abnormal death of eggs due to soaking in water; it is also necessary to ensure sufficient strong ambient light, without directing irradiating the leaves. • (5) Survey of Results: The experimental materials of each treatment group were regularly hydrated and moisturized, and the hatching of eggs was observed. On the 7th day after insecticide delivery, the number of hatched eggs for each treatment was recorded, and the survey of results was recorded in the original notebook. According to the experimental requirements and characteristics of agents, the survey time can be shortened or extended. • 1) Surveying and recording the number of hatched eggs for each treatment. • 2) Photographing and recording whether there was any pesticide damage to the leaf discs of Vicia faba. • 3) Recording the developmental status of experimental mite eggs, behavior status of nymph mites, including abnormal phenomena such as delayed or stopped development of mite eggs, difficulty in breaking hull for nymph mites, or painful struggles after hatching, etc. • (6) Calculation method: Based on the survey data, the prevention and control effect of each treatment was calculated according to the following formula, and the calculation results were kept to two decimal places. [formula] [formula] [table]

[2] = test system: eggs of Spodoptera litura; assay: Effect on hatching of eggs of Spodoptera litura, egg piece soaking; assay type: in vivo; details: 500 ppm; for Hatching rate (%), Replicate 1 / Hatching rate (%), Replicate 2 / Hatching rate (%), Replicate 3 / Number of unhatched larvae 4 days after insecticide delivery, Replicate 1 / Number of unhatched larvae 4 days after insecticide delivery, Replicate 2 / Number of unhatched larvae 4 days after insecticide delivery, Replicate 3: Spodoptera litura eggs; for Hatching rate (%), Replicate 1 / Hatching rate (%), Replicate 2 / Hatching rate (%), Replicate 3: 4 days after delivery; for Number of unhatched larvae 4 days after insecticide delivery, Replicate 1 / Number of unhatched larvae 4 days after insecticide delivery, Replicate 2 / Number of unhatched larvae 4 days after insecticide delivery, Replicate 3: soaked 10 minutes
Method: • (1) Preparation of paper containing eggs: the egg mass was cut into small pieces, each containing about 60 eggs, soaked in a preformulated test agent for 10 minutes together with paper for egg raising (concentration of each compound of 500 ppm). After taken out, absorbent paper was used to absorb the excess solution adhered to the paper for egg raising and egg pieces. (2) Cultivation: Each egg piece was separately placed in a glass test tube (5.0 cm in height, 2.5 cm in diameter, the same below), which was sealed with plastic paper punctured with fine holes using insect needles and cultivated in an artificial climate chamber at a temperature of (24±1° C.), a relative humidity of (80±10) %, and a photoperiod of L:D=12:12. When the eggs developed until they were about to hatch, castor leaves with a diameter of about 3 cm were added for feeding the hatching larvae; • (3) Observation: the number of hatched and unhatched eggs per egg piece was checked and recorded, and the hatching rate of eggs was calculated according to the formula. Each treatment was repeated for 3 times. • (4) Survey of results: The experimental materials of each treatment group were regularly hydrated and moisturized, and the hatching of eggs was observed. On the 4th day after insecticide delivery, the number of hatched eggs for each treatment was recorded, and the survey of results was recorded in the original notebook. According to the experimental requirements and characteristics of agents, the survey time can be shortened or extended. • 1) Surveying and recording the number of hatched eggs for each treatment. • 2) Recording the developmental status of experimental eggs of Spodoptera litura, behavior status of nymphs, including abnormal phenomena such as delayed or stopped development of eggs of Spodoptera litura, etc. • (5) Calculation method: Based on the survey data, the prevention and control effect of each treatment was calculated according to the following formula, and the calculation results were kept to two decimal places. [formula] [formula]

In the case of CC(COc1ccc(Cl)cc1Cl)OS(=O)OCCF [1′-(S,S)], the “Hatching rate (%)” value ([1]; 0.25 mg/L, Replicate 1) is reported as 64.58%, the “Hatching rate (%)” value ([1]; 0.25 mg/L, Replicate 2) is reported as 69.57% and the “Number of hatched larvae 7 days after insecticide delivery” value (shortened to “Number of hatched larvae 7 days”) ([1]; 0.25 mg/L, Replicate 1) is reported as 17. For the same compound, the “Number of hatched larvae 7 days” value ([1]; 0.25 mg/L, Replicate 2) was 14, the “Hatching rate (%)” value ([1]; 0.5 mg/L, Replicate 1) was 27.59% and the “Hatching rate (%)” value ([1]; 0.5 mg/L, Replicate 2) was 12.00%. The “Number of hatched larvae 7 days” value ([1]; 0.5 mg/L, Replicate 1) was 42, the “Number of hatched larvae 7 days” value ([1]; 0.5 mg/L, Replicate 2) was 66 and the “Hatching rate (%)” value ([1]; 1 mg/L, Replicate 1) was 16.36%. For the same compound, the “Hatching rate (%)” value ([1]; 1 mg/L, Replicate 2) was 14.63%, the “Number of hatched larvae 7 days” value ([1]; 1 mg/L, Replicate 1) was 46 and the “Number of hatched larvae 7 days” value ([1]; 1 mg/L, Replicate 2) was 35. For the same compound, the “Hatching rate (%), Replicate 1” value ([2]; listed as 1′-(S, S)) was 64.52%, the “Hatching rate (%), Replicate 2” value ([2]; listed as 1′-(S, S)) was 63.79% and the “Hatching rate (%), Replicate 3” value ([2]; listed as 1′-(S, S)) was 66.07%. For the same compound, the “Number of unhatched larvae 4 days after insecticide delivery, Replicate 1” value (shortened to “Number of unhatched larvae 4 days … Replicate 1”) ([2]; listed as 1′-(S, S)) was 22, the “Number of unhatched larvae 4 days after insecticide delivery, Replicate 2” value (“Number of unhatched larvae 4 days … Replicate 2” for short) ([2]; listed as 1′-(S, S)) was 21 and the “Number of unhatched larvae 4 days after insecticide delivery, Replicate 3” value (“Number of unhatched larvae 4 days … Replicate 3” below) ([2]; listed as 1′-(S, S)) was 19.
With CC[C@H](COc1ccc(Cl)cc1Cl)OS(=O)OCCF (stereo partly drawn) [19-(R,S)] the “Hatching rate (%)” value ([1]; 0.25 mg/L, Replicate 1) was 39.68%, the “Hatching rate (%)” value ([1]; 0.25 mg/L, Replicate 2) was 41.38% and the “Number of hatched larvae 7 days” value ([1]; 0.25 mg/L, Replicate 1) was 38. For the same compound, the “Number of hatched larvae 7 days” value ([1]; 0.25 mg/L, Replicate 2) was 34, the “Hatching rate (%)” value ([1]; 0.5 mg/L, Replicate 1) was 2.08% and the “Hatching rate (%)” value ([1]; 0.5 mg/L, Replicate 2) was 3.57%. The “Number of hatched larvae 7 days” value ([1]; 0.5 mg/L, Replicate 1) was 47, the “Number of hatched larvae 7 days” value ([1]; 0.5 mg/L, Replicate 2) was 54 and the “Hatching rate (%)” value ([1]; 1 mg/L, Replicate 1) was 0.00%. The “Hatching rate (%)” value ([1]; 1 mg/L, Replicate 2) was 0.00%, the “Number of hatched larvae 7 days” value ([1]; 1 mg/L, Replicate 1) was 59 and the “Number of hatched larvae 7 days” value ([1]; 1 mg/L, Replicate 2) was 67. The “inhibitory effect on the hatching of pest eggs of Tetranychus cinnabarinus (in words)” value [1] was “excellent inhibitory effects”, the “inhibitory activity on the hatching of eggs of Spodoptera litura (in words)” value [2] was “good inhibitory activities” and the “Hatching rate (%), Replicate 1” value [2] was 15.63%. For the same compound, the “Hatching rate (%), Replicate 2” value [2] was 15.25%, the “Hatching rate (%), Replicate 3” value [2] was 16.67% and the “Number of unhatched larvae 4 days … Replicate 1” value [2] was 54. For the same compound, the “Number of unhatched larvae 4 days … Replicate 2” value [2] was 50 and the “Number of unhatched larvae 4 days … Replicate 3” value [2] was 50.
CC[C@@H](COc1ccc(Cl)cc1Cl)OS(=O)OCCF (stereo partly drawn) [19-(S,R)] was tested, and the “Hatching rate (%)” value ([1]; 0.25 mg/L, Replicate 1) was 43.55%, the “Hatching rate (%)” value ([1]; 0.25 mg/L, Replicate 2) was 45.61% and the “Number of hatched larvae 7 days” value ([1]; 0.25 mg/L, Replicate 1) was 35. For the same compound, the “Number of hatched larvae 7 days” value ([1]; 0.25 mg/L, Replicate 2) was 31, the “Hatching rate (%)” value ([1]; 0.5 mg/L, Replicate 1) was 5.13% and the “Hatching rate (%)” value ([1]; 0.5 mg/L, Replicate 2) was 5.26%. For the same compound, the “Number of hatched larvae 7 days” value ([1]; 0.5 mg/L, Replicate 1) was 74, the “Number of hatched larvae 7 days” value ([1]; 0.5 mg/L, Replicate 2) was 54 and the “Hatching rate (%)” value ([1]; 1 mg/L, Replicate 1) was 0.00%. The “Hatching rate (%)” value ([1]; 1 mg/L, Replicate 2) was 0.00%, the “Number of hatched larvae 7 days” value ([1]; 1 mg/L, Replicate 1) was 60 and the “Number of hatched larvae 7 days” value ([1]; 1 mg/L, Replicate 2) was 68. For the same compound, the “inhibitory effect on the hatching of pest eggs of Tetranychus cinnabarinus (in words)” value [1] was “excellent inhibitory effects”, the “inhibitory activity on the hatching of eggs of Spodoptera litura (in words)” value [2] was “good inhibitory activities” and the “Hatching rate (%), Replicate 1” value [2] was 15.79%. The “Hatching rate (%), Replicate 2” value [2] was 15.38%, the “Hatching rate (%), Replicate 3” value [2] was 15.38% and the “Number of unhatched larvae 4 days … Replicate 1” value [2] was 48. The “Number of unhatched larvae 4 days … Replicate 2” value [2] was 55 and the “Number of unhatched larvae 4 days … Replicate 3” value [2] was 44.
